Test results published in the supplement of paper PMC10307832.

Legend:
Test in all cases: relative viability (nuclei count vs DMSO), 5 days (fraction); higher = more cells survive
Nelarabine + Trametinib = compound: COc1nc(N)nc2c1ncn2[C@@H]1O[C@H](CO)[C@@H](O)[C@@H]1O [Nelarabine] + CC(=O)Nc1cccc(-n2c(=O)n(C3CC3)c(=O)c3c(Nc4ccc(I)cc4F)n(C)c(=O)c(C)c32)c1 [Trametinib] (partner 0.02 µM)
Summary of the method: (§1)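 Each reported value is a median over duplicate plates. It expresses relative viability: treated-well nuclei count divided by vehicle-well nuclei count. Lung cancer cell lines in 1536-well plates were dosed by pin tool a day after seeding, alone with one drug or with a fixed anchor-drug dose plus five library-drug doses (not always all listed) in √10 steps, and nuclei were counted after 5 days.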

[1] = compound: C=CCn1c(=O)c2cnc(Nc3ccc(N4CCN(C)CC4)cc3)nc2n1-c1cccc(C(C)(C)O)n1 [Adavosertib] + CC(=O)c1c(C)c2cnc(Nc3ccc(N4CCNCC4)cn3)nc2n(C2CCCC2)c1=O [Palbociclib] (partner 0.5 µM)
Summary of the method: as §1

Nelarabine + Pictilisib = compound: COc1nc(N)nc2c1ncn2[C@@H]1O[C@H](CO)[C@@H](O)[C@@H]1O [Nelarabine] + CS(=O)(=O)N1CCN(Cc2cc3nc(-c4cccc5[nH]ncc45)nc(N4CCOCC4)c3s2)CC1 [Pictilisib] (partner 1 µM)
Summary of the method: as §1

Nelarabine + Palbociclib = compound: COc1nc(N)nc2c1ncn2[C@@H]1O[C@H](CO)[C@@H](O)[C@@H]1O [Nelarabine] + CC(=O)c1c(C)c2cnc(Nc3ccc(N4CCNCC4)cn3)nc2n(C2CCCC2)c1=O [Palbociclib] (partner 0.5 µM)
Summary of the method: as §1

Cell Line | relative viability (Nelarabine + Trametinib; first compound 0.01 µM) | relative viability (Nelarabine + Trametinib; first compound 0.03162 µM) | relative viability (Nelarabine + Trametinib; first compound 0.1 µM) | relative viability (Nelarabine + Trametinib; first compound 0.3162 µM) | relative viability (Nelarabine + Trametinib; first compound 1 µM) | relative viability ([1]; first compound 0.01 µM) | relative viability ([1]; first compound 0.03162 µM) | relative viability ([1]; first compound 0.1 µM) | relative viability ([1]; first compound 0.3162 µM) | relative viability (Nelarabine + Pictilisib; first compound 0.01 µM) | relative viability (Nelarabine + Pictilisib; first compound 0.03162 µM) | relative viability (Nelarabine + Pictilisib; first compound 0.1 µM) | relative viability (Nelarabine + Pictilisib; first compound 0.3162 µM) | relative viability (Nelarabine + Pictilisib; first compound 1 µM) | relative viability (Nelarabine + Palbociclib; first compound 0.01 µM) | relative viability (Nelarabine + Palbociclib; first compound 0.03162 µM) | relative viability (Nelarabine + Palbociclib; first compound 0.1 µM) | relative viability (Nelarabine + Palbociclib; first compound 0.3162 µM) | relative viability (Nelarabine + Palbociclib; first compound 1 µM)
COR-L 105 | 0.351 | 0.398 | 0.448 | 0.383 | 0.482 | 0.374 | 0.419 | 0.415 | 0.444 | 0.341 | 0.4 | 0.352 | 0.424 | 0.39 | 0.383 | 0.354 | 0.43 | 0.385 | 0.421
BEN | 1.17 | 0.91 | 1.01 | 1.05 | 1.31 | 0.452 | 0.434 | 0.473 | 0.501 | 0.67 | 0.596 | 0.605 | 0.607 | 0.641 | 0.532 | 0.452 | 0.497 | 0.491 | 0.494
HARA | 0.412 | 0.703 | 0.676 | 0.754 | 0.718 | 0.21 | 0.271 | 0.349 | 0.265 | 0.457 | 0.346 | 0.336 | 0.452 | 0.354 | 0.202 | 0.253 | 0.228 | 0.273 | 0.287
NCI-H1437 | 0.637 | 0.582 | 0.484 | 0.64 | 0.581 | 0.333 | 0.313 | 0.305 | 0.35 | 0.465 | 0.356 | 0.373 | 0.426 | 0.47 | 0.342 | 0.35 | 0.307 | 0.338 | 0.302
HCC-44 | 1.14 | 1.05 | 1.01 | 1.03 | 0.983 | 0.989 | 1.01 | 1.03 | 0.966 | 0.708 | 0.829 | 0.569 | 0.597 | 0.529 | 0.985 | 0.955 | 0.978 | 0.984 | 0.944
COR-L23 | 0.779 | 0.558 | 0.516 | 0.612 | 0.777 | 0.291 | 0.338 | 0.274 | 0.205 | 1.13 | 0.635 | 0.738 | 0.934 | 0.864 | 0.4 | 0.243 | 0.26 | 0.267 | 0.282
201T | 0.781 | 0.775 | 0.737 | 0.712 | 0.73 | 0.336 | 0.356 | 0.364 | 0.367 | 0.792 | 0.556 | 0.718 | 0.714 | 0.705 | 0.391 | 0.352 | 0.409 | 0.389 | 0.351
NCI-H23 | 0.403 | 0.404 | 0.343 | 0.378 | 0.409 | 0.503 | 0.53 | 0.419 | 0.219 | 0.494 | 0.499 | 0.528 | 0.459 | 0.51 | 0.54 | 0.51 | 0.43 | 0.503 | 0.634
EKVX | 0.402 | 0.306 | 0.587 | 0.282 | 0.472 | 0.365 | 0.354 | 0.344 | 0.5 | 0.547 | 0.373 | 0.359 | 0.508 | 0.474 | 0.373 | 0.356 | 0.549 | 0.348 | 0.361
NCI-H1915 | 0.328 | 0.318 | 0.284 | 0.299 | 0.305 | 0.535 | 0.564 | 0.645 | 0.644 | 1.08 | 0.939 | 1.04 | 0.959 | 1.01 | 0.598 | 0.531 | 0.533 | 0.522 | 0.525
LU99A | 0.548 | 0.552 | 0.554 | 0.561 | 0.599 | 0.404 | 0.373 | 0.393 | 0.409 | 0.302 | 0.269 | 0.327 | 0.321 | 0.299 | 0.48 | 0.34 | 0.429 | 0.43 | 0.399
LCLC-103H | 0.72 | 0.68 | 0.751 | 0.758 | 0.69 | 0.498 | 0.478 | 0.469 | 0.464 | 0.756 | 0.811 | 0.62 | 0.671 | 0.652 | 0.523 | 0.421 | 0.466 | 0.486 | 0.504
LK-2 | 0.903 | 0.474 | 0.795 | 0.956 | 0.86 | 0.7 | 0.937 | 0.879 | 0.761 | 0.68 | – | 0.503 | 0.436 | 0.651 | 1.04 | – | 0.772 | 0.835 | 0.684
SK-LU-1 | 0.523 | 0.42 | 0.421 | 0.558 | 0.514 | 0.405 | 0.467 | 0.398 | 0.342 | 0.684 | 0.396 | 0.546 | 0.606 | 0.613 | 0.456 | 0.276 | 0.352 | 0.376 | 0.377
NCI-H1755 | 0.852 | 0.777 | 0.753 | 0.692 | 0.836 | 0.449 | 0.41 | 0.443 | 0.446 | 0.488 | 0.429 | 0.507 | 0.429 | 0.522 | 0.462 | 0.464 | 0.462 | 0.463 | 0.453
NCI-H647 | 0.584 | 0.423 | 0.537 | 0.548 | 0.502 | 0.408 | 0.461 | 0.261 | 0.316 | 0.475 | 0.363 | 0.492 | 0.445 | 0.37 | 0.423 | 0.396 | 0.501 | 0.457 | 0.458
NCI-H1734 | 0.829 | 0.615 | 0.666 | 0.666 | 0.627 | 0.332 | 0.326 | 0.353 | 0.375 | 0.561 | 0.538 | 0.516 | 0.479 | 0.452 | 0.387 | 0.305 | 0.334 | 0.368 | 0.326
